The source of these data is patent US6211375A, “Pyridonecarboxylic acid derivatives or salts thereof and antibacterial agents containing the same as the active ingredient” (Wakunaga Pharmaceutical Co., Ltd., priority 1996, dated 2001).

≈ marks a conversion by molar mass, not a printed value. Like-named read-outs stand apart in the source and are kept apart here.

Data set [1] in a line: Absorption and Excretion (urine and bile recovery rates after oral administration). The conditions noted are these: rat, 20 mg/kg, rats, oral 20 mg/10 ml/kg. The class given is in vivo, Male SD rats. On the procedure: A compound of the present invention was measured for its urine and bile recovery rates in rats after its oral administration to evaluate absorption and excretion of the compounds.
Male SD rats of 6 week old which had been fasted overnight were administered orally with 0.5% methylcellulose suspension of the test compounds (20 mg/10 ml/kg). The urine collection was continued until 24 hours after the administration. The concentration of the test compound in the urine was measured by paper disc method using Bacillus subtilis ATCC6633 for the test bacterium to determine the urine recovery rate.
Into choledoch duct of male SD rats of 6 week old which had been fasted overnight was inserted a polyethylene tube under etherization. After arousing, the rats were forcedly administered orally with the test compounds as in the case of the above (1), and bile collection was continued until 24 hours after the administration. The bile with no further treatment and the bile alkaline hydrolyzed (with 0.1N NaOH, 37° C., 1 hour) were measured for their concentration of the test compound by the same procedure as in the case of the above (1) to determine the bile recovery rate.

A further data set has as its system ears. In words: Phototoxicity Test (abnormality in the ears of mice after UVA irradiation). The class given is in vivo, Female ICR mice. The following applies: 40 mg/kg i.v., UVA 320 to 400 nm, 4 hours; for ear abnormality, point: 0 = no abnormality, 1 = very slight erythema, 2 = well defined erythema, 3 = moderate to severe erythema or edema. Here is the method:
Female ICR mice (5 to 6 week old) were intravenously administered with the test compound (40 mg/kg/10 ml), and irradiated with UVA (320 to 400 nm, 1.8 mW/cm^2 /sec) for 4 hours. Abnormality in the ears was monitored at 0 hour immediately after the irradiation and after 24 hours. The ear abnormality was evaluated by the following criteria: no abnormality (0 point), very slight erythema (1 point), well defined erythema (2 points), moderate to severe erythema or edema formation (3 points). Tosufloxacin which is a conventional known antibacterial agent was also tested in a similar way for the purpose of comparison.

The test system of the next data set is S.aureus 209P. In words: Antibacterial Activity, minimum growth inhibitory concentration (MIC), S.aureus 209P. The class given is cell-based. The conditions noted are these: Staphylococcus aureus, standard method of Japan Chemotherapy Society. Here is the method: (§1) Minimum growth inhibitory concentration (MIC, μg/ml) was evaluated in accordance with the standard method of Japan Chemotherapy Society (Chemotherapy 29(1), 76, 1981). It should be noted that tosufloxacin was also evaluated for its minimum growth inhibitory concentration for the purpose of comparison.

A further data set concerns P. aeruginosa IFO3445. In words: Antibacterial Activity, minimum growth inhibitory concentration (MIC), P. aeruginosa IFO3445. It is filed as cell-based. The conditions noted are these: Pseudomonas aeruginosa, standard method of Japan Chemotherapy Society. On the procedure:
as §1

The MIC is the lowest concentration found to suppress growth. A lower MIC goes with inhibition by little substance. Turning to `Cc1c(N2CC(C)(N)C2)c(F)cc2c(=O)c(C(=O)O)cn(-c3cc(N)c(F)cc3F)c12` [Compound of Ex. 3, 7-(3-amino-3-methylazetidin-1-yl)-1-(3-amino-4,6-difluorophenyl)-6-fluoro-8-methyl-1,4-dihydro-4-oxoguinoline-3-carboxylic Acid], the dose excreted at 24 h in data set [1] (bile, 0-24 hours, bile after alkaline hydrolysis (0.1N NaOH, 37° C., 1 hour), read-out: Recovery rate (24 hours), Bile*) came to 26.7%; in data set [1] (bile, 0-24 hours, bile with no further treatment, read-out: Recovery rate (24 hours), Bile), 10.4%; in data set [1] (urine and bile, 24 hours, total recovery rate, read-out: Recovery rate (24 hours), Total recovery rate) it was 30.6%; in data set [1] (urine, 0-24 hours, paper disc method with Bacillus subtilis ATCC6633, read-out: Recovery rate (24 hours), Urine), 3.9%. The “ear abnormality, occurrence” value with ears (0 hour after irradiation) and with ears (24 hours after irradiation) was 0/3 each time. Moreover, the “ear abnormality, point” value in the data set on ears (0 hour after irradiation) and in the data set with ears (24 hours after irradiation) was 0 point each time. Also, the MIC worked out at 0.006 µg/mL (≈ 0.0139 µM) with S.aureus 209P and 0.1 µg/mL (≈ 0.231 µM) in the data set on P. aeruginosa IFO3445.

In the case of `Cc1cc(F)c(N)cc1-n1cc(C(=O)O)c(=O)c2cc(F)c(N3CC(C)(N)C3)c(C)c21` [Compound of Ex. 5, 7-(3-amino-3-methylazetidin-l-yl)-1-(3-amino-4-fluoro-6-methylphenyl)-6-fluoro-8-methyl-1,4-dihydro-4-oxoguinoline-3-carboxylic Acid], the “ear abnormality, occurrence” value in the data set with ears (0 hour after irradiation) and in the data set with ears (24 hours after irradiation) was 0/3 each time. Further, the “ear abnormality, point” value in the data set with ears (0 hour after irradiation) and in the data set on ears (24 hours after irradiation) was 0 point throughout. Besides, the MIC in the data set with S.aureus 209P is 0.013 µg/mL (≈ 0.0303 µM); with P. aeruginosa IFO3445 it was 0.2 µg/mL (≈ 0.467 µM).

For the compound `CNC1CN(c2c(F)cc3c(=O)c(C(=O)O)cn(-c4cc(N)c(F)cc4F)c3c2C)C1` [Compound of Ex. 2, 1-(3-amino-4,6-difluorophenyl)-6-fluoro-8-methyl-7-(3-methylaminoazetidin-1-yl)-1,4-dihydro-4-oxoguinoline-3-carboxylic Acid], the “ear abnormality, occurrence” value with ears (0 hour after irradiation) and in the data set with ears (24 hours after irradiation) was 0/3 each time. Also, the “ear abnormality, point” value in the data set with ears (0 hour after irradiation) and in the data set with ears (24 hours after irradiation) was 0 point throughout. The MIC against S.aureus 209P amounted to 0.006 µg/mL (≈ 0.0139 µM); with P. aeruginosa IFO3445 it was 0.1 µg/mL (≈ 0.231 µM).

For `Cc1c(N2CC(N)C2)c(F)cc2c(=O)c(C(=O)O)cn(-c3cc(N)c(F)cc3F)c12` [Compound of Ex. 1, 7-(3-aminoazetidin-1-yl)-1-(3-amino-4,6-difluorophenyl)-6-fluoro-8-methyl-1,4-dihydro-4-oxoguinoline-3-carboxylic Acid], the “ear abnormality, occurrence” value in the data set on ears (0 hour after irradiation) and in the data set with ears (24 hours after irradiation) was 0/3 in each case. Besides, the “ear abnormality, point” value in the data set with ears (0 hour after irradiation) and in the data set on ears (24 hours after irradiation) was 0 point throughout. The minimum inhibitory concentration (MIC) against S.aureus 209P was 0.006 µg/mL (≈ 0.0143 µM); in the data set on P. aeruginosa IFO3445, 0.05 µg/mL (≈ 0.12 µM).

`Cc1c(F)c(N2CC(N)C2)c(C)c2c1c(=O)c(C(=O)O)cn2-c1cc(N)c(F)cc1F` [Compound of Ex. 10, 7-(3-aminoazetidin-1-yl)-1-(3-amino-4,6-difluorophenyl)-6-fluoro-5,8-dimethyl-4-oxo-1,4-dihydroquinoline-3-carboxylic Acid]: the “ear abnormality, occurrence” value in the data set with ears (0 hour after irradiation) and in the data set on ears (24 hours after irradiation) was 0/3 in each case. The “ear abnormality, point” value with ears (0 hour after irradiation) and with ears (24 hours after irradiation) was 0 point in each case. Moreover, the results for the MIC with S.aureus 209P and against P. aeruginosa IFO3445 were 0.003 µg/mL (≈ 0.00694 µM) and 0.1 µg/mL (≈ 0.231 µM), respectively.

Turning to `Cc1cc(F)c(N)cc1-n1cc(C(=O)O)c(=O)c2cc(F)c(N3CC(O)C3)c(C)c21` [Compound of Ex. 9, 1-(3-amino-4-fluoro-6-methylphenyl)-6-fluoro-7-(3-hydroxyazetidin-1-yl)-8-methyl-4-oxo-1,4-dihydroquinoline-3-carboxylic Acid], the “ear abnormality, occurrence” value in the data set with ears (0 hour after irradiation) and with ears (24 hours after irradiation) was 0/3 throughout. For the same compound, the “ear abnormality, point” value in the data set with ears (0 hour after irradiation) and with ears (24 hours after irradiation) was 0 point each time. Further, the minimal inhibitory concentration (MIC) in the data set on S.aureus 209P is 0.013 µg/mL (≈ 0.0313 µM); with P. aeruginosa IFO3445 it was 0.2 µg/mL (≈ 0.481 µM).

For the compound `NC1CCN(c2nc3c(cc2F)c(=O)c(C(=O)O)cn3-c2ccc(F)cc2F)C1` (stereo not shown) [Tosufloxacin, reference compound], the “ear abnormality, occurrence” value in the data set with ears (0 hour after irradiation) and with ears (24 hours after irradiation) was 4/5 throughout. In addition, the “ear abnormality, point” value worked out at 1.8 point in the data set on ears (0 hour after irradiation) and 0.8 point in the data set on ears (24 hours after irradiation). Also, the MIC with S.aureus 209P was found to be 0.05 µg/mL (≈ 0.124 µM); against P. aeruginosa IFO3445, 0.39 µg/mL (≈ 0.965 µM).

For the compound `Cc1c(N2CC(N)C2)c(F)cc2c(=O)c(C(=O)O)cn(-c3cc(N)c(F)cc3Cl)c12` [Compound of Ex. 7, 7-(3-aminoazetidin-1-yl)-1-(3-amino-6-chloro-4-fluorophenyl)-6-fluoro-8-methyl-1,4-dihydro-4-oxoguinoline-3-carboxylic Acid], the “ear abnormality, occurrence” value in the data set on ears (0 hour after irradiation) and in the data set on ears (24 hours after irradiation) was 0/3 each time. The “ear abnormality, point” value in the data set with ears (0 hour after irradiation) and with ears (24 hours after irradiation) was 0 point in each case. The minimal inhibitory concentration (MIC) in the data set with S.aureus 209P came out at 0.013 µg/mL (≈ 0.0299 µM); in the data set with P. aeruginosa IFO3445, 0.1 µg/mL (≈ 0.23 µM).

Turning to `Cc1c(N2CC(O)C2)c(F)cc2c(=O)c(C(=O)O)cn(-c3cc(N)c(F)cc3F)c12` [Compound of Ex. 8, 1-(3-amino-4,6-difluorophenyl)-6-fluoro-7-(3-hydroxyazetidin-1-yl)-8-methyl-4-oxo-1,4-dihydroquinoline-3-carboxylic Acid], the “ear abnormality, occurrence” value with ears (0 hour after irradiation) and in the data set with ears (24 hours after irradiation) was 0/3 in each case. For the same compound, the “ear abnormality, point” value in the data set with ears (0 hour after irradiation) and in the data set on ears (24 hours after irradiation) was 0 point each time. In addition, the MIC in the data set on S.aureus 209P was found to be 0.006 µg/mL (≈ 0.0143 µM); against P. aeruginosa IFO3445, 0.2 µg/mL (≈ 0.477 µM).

Regarding `CNC1CN(c2c(F)cc3c(=O)c(C(=O)O)cn(-c4cc(N)c(F)cc4C)c3c2C)C1` [Compound of Ex. 6, 1-(3-amino-4-fluoro-6-methylphenyl)-6-fluoro-8-methyl-7-(3-methylaminoazetidin-1-yl)-1,4-dihydro-4-oxoguinoline-3-carboxylic Acid], the “ear abnormality, occurrence” value in the data set on ears (0 hour after irradiation) and in the data set with ears (24 hours after irradiation) was 0/3 each time. Also, the “ear abnormality, point” value in the data set with ears (0 hour after irradiation) and in the data set on ears (24 hours after irradiation) was 0 point throughout. The MIC against S.aureus 209P was 0.013 µg/mL (≈ 0.0303 µM); in the data set on P. aeruginosa IFO3445, 0.2 µg/mL (≈ 0.467 µM).

`Cc1cc(F)c(N)cc1-n1cc(C(=O)O)c(=O)c2cc(F)c(N3CC(N)C3)c(C)c21` [Compound of Ex. 4, 7-(3-aminoazetidin-1-yl)-1-(3-amino-4-fluoro-6-methylphenyl)-6-fluoro-8-methyl-1,4-dihydro-4-oxoguinoline-3-carboxylic Acid]: the “ear abnormality, occurrence” value with ears (0 hour after irradiation) and in the data set on ears (24 hours after irradiation) was 0/3 each time. The “ear abnormality, point” value in the data set on ears (0 hour after irradiation) and in the data set with ears (24 hours after irradiation) was 0 point throughout. The MIC against S.aureus 209P was 0.003 µg/mL (≈ 0.00724 µM); with P. aeruginosa IFO3445 it was 0.1 µg/mL (≈ 0.241 µM).
